According to patent US8124380B2 (priority 2003, dated 2012):
Values joined by “and” are separate entries in the source; they are usually repeats but may differ in a detail not shown here. Equal entries are not always repeated.

Legend:
mIgG C1-7 = assay type: binding, murine
mIgG E4-1 = assay type: binding, murine
mIgG F22-4 = assay type: binding, murine
mIgG D15-7 = assay type: binding, murine
mIgG A2-1 = assay type: binding, murine
[1] = test system: mIgG F22-4, D15-7, A2-1, E4-1, C1-7; assay type: binding, murine
LPS 2a = test system: LPS 2a; parameters: species or system mice; details: in vivo

| Compound | IC50 (mIgG C1-7) [µM] | IC50 (mIgG E4-1) | IC50 (mIgG F22-4) | IC50 (mIgG D15-7) [µM] | IC50 (mIgG A2-1) [µM] | improving Ab binding by a factor (mIgG E4-1) | improving Ab binding by a factor (mIgG D15-7) | gain in recognition / binding improvement by a factor (mIgG A2-1) | fold increase in binding (mIgG A2-1) [fold] | recognition (binding) by the mIgG [1] | Anti-LPS 2a antibody titer, individual mouse (1) (LPS 2a) | Anti-LPS 2a antibody titer, individual mouse (2) (LPS 2a) |
| --- | --- | --- | --- | --- | --- | --- | --- | --- | --- | --- | --- | --- |
| CO[C@@H]1O[C@@H](C)[C@H](O)[C@@H](O)[C@H]1O[C@@H]1O[C@@H](C)[C@H](O)[C@@H](O)[C@H]1O[C@@H]1O[C@H](CO)[C@@H](O)[C@H](O[C@@H]2O[C@@H](C)[C@H](O[C@H]3O[C@H](CO)[C@@H](O)[C@H](O)[C@H]3O)[C@@H](O)[C@H]2O)[C@H]1NC(C)=O [(E)CDAB, Methyl α-D-glucopyranosyl-(1→4)-α-L-rhamnopyranosyl-(1→3)-2-acetamido-2-deoxy-β-D-glucopyranosyl-(1→2)-α-L-rhamnopyranosyl-(1→2)-α-L-rhamnopyranoside] | > 1000 | > 1000 µM | 354 µM | > 1000 | > 1000 |  |  |  |  |  |  |  |
| COC1OC(C)C(O)C(O)C1OC1OC(CO)C(O)C(OC2OC(C)C(OC3OC(CO)C(O)C(O)C3O)C(O)C2O)C1NC(C)=O (stereo not shown) [(E)CDA] | > 1000 | > 1000 µM | 181 µM | > 1000 | > 1000 |  |  |  |  |  |  |  |
| CO[C@@H]1O[C@H](CO)[C@@H](O)[C@H](O[C@@H]2O[C@@H](C)[C@H](O[C@H]3O[C@H](CO)[C@@H](O)[C@H](O)[C@H]3O)[C@@H](O[C@@H]3O[C@@H](C)[C@H](O)[C@@H](O)[C@H]3O[C@@H]3O[C@@H](C)[C@H](O)[C@@H](O)[C@H]3O)[C@H]2O)[C@H]1NC(C)=O [AB(E)CD, Methyl α-L-rhamnopyranosyl-(1→2)-α-L-rhamnopyranosyl-(1→3)-[α-D-glucopyranosyl-(1→4)]-α-L-rhamnopyranosyl-(1→3)-2-acetamido-2-deoxy-β-D-glucopyranoside] | 734 | 287 µM and 288 µM | 21 µM and 21.6 µM | 490 | 378 |  |  |  |  |  |  |  |
| CO[C@@H]1O[C@H](CO)[C@@H](O)[C@H](O[C@@H]2O[C@@H](C)[C@H](O[C@H]3O[C@H](CO)[C@@H](O)[C@H](O)[C@H]3O)[C@@H](O[C@@H]3O[C@@H](C)[C@H](O)[C@@H](O)[C@H]3O)[C@H]2O)[C@H]1NC(C)=O [B(E)CD, Methyl α-L-rhamnopyranosyl-(1→3)-[α-D-glucopyranosyl-(1→4)]-α-L-rhamnopyranosyl-(1→3)-2-acetamido-2-deoxy-β-D-glucopyranoside] | > 1000 | 87 µM | 5 µM | 198 | > 1000 |  |  |  |  |  |  |  |
| COC1OC(C)C(OC2OC(CO)C(O)C(O)C2O)C(OC2OC(C)C(O)C(O)C2OC2OC(C)C(O)C(O)C2OC2OC(CO)C(O)C(OC3OC(C)C(OC4OC(CO)C(O)C(O)C4O)C(OC4OC(C)C(O)C(O)C4O)C3O)C2NC(C)=O)C1O (stereo not shown) [B(E)CDA B(E)C] | 242 | 12 µM | 0.22 µM | 60.8 | 12.9 | ~4 | ~4 | ~25 |  |  |  |  |
| CO[C@@H]1O[C@@H](C)[C@H](O)[C@@H](O)[C@H]1O[C@@H]1O[C@H](CO)[C@@H](O)[C@H](O[C@@H]2O[C@@H](C)[C@H](O[C@H]3O[C@H](CO)[C@@H](O)[C@H](O)[C@H]3O)[C@@H](O[C@@H]3O[C@@H](C)[C@H](O)[C@@H](O)[C@H]3O)[C@H]2O)[C@H]1NC(C)=O [B(E)CDA] | 400 | 75 µM | 2.5 µM | 240 | 350 |  |  |  |  |  |  |  |
| COC1OC(C)C(OC2OC(CO)C(O)C(O)C2O)C(OC2OC(C)C(O)C(O)C2O)C1O (stereo not shown) [B(E)C] | > 1000 | > 1000 µM | > 1000 µM | > 1000 | > 1000 |  |  |  |  |  |  |  |
| COC1OC(C)C(OC2OC(CO)C(O)C(O)C2O)C(OC2OC(C)C(O)C(O)C2OC2OC(C)C(O)C(O)C2OC2OC(CO)C(O)C(OC3OC(C)C(OC4OC(CO)C(O)C(O)C4O)C(OC4OC(C)C(O)C(O)C4OC4OC(C)C(O)C(O)C4OC4OC(CO)C(O)C(O)C4NC(C)=O)C3O)C2NC(C)=O)C1O [DA B(E)CDA B(E)C, Methyl (2-acetamido-2-deoxy-β-D-glucopyranosyl)-(1→2)-(α-L-rhamnopyranosyl)-(1→2)-(α-L-rhamnopyranosyl)-(1→3)-[α-D-glucopyranosyl-(1→4)]-(α-L-rhamnopyranosyl)-(1→3)-(2-acetamido-2-deoxy-β-D-glucopyranosyl)-(1→2)-(α-L-rhamnopyranosyl)-(1→2)-(α-L-rhamnopyranosyl)-(1→3)-[α-D-glucopyranosyl-(1→4)]-α-L-rhamnopyranoside] | 19 | 4.4 µM | 5 µM | 11.9 | 3 |  |  |  | 100 |  |  |  |
| COC1OC(C)C(OC2OC(CO)C(O)C(O)C2O)C(OC2OC(C)C(O)C(O)C2OC2OC(C)C(O)C(O)C2OC2OC(CO)C(O)C(O)C2NC(C)=O)C1O (stereo not shown) [DAB(E)C] | > 1000 | > 1000 µM | > 1000 µM | > 1000 | > 1000 |  |  |  |  | absence of recognition |  |  |
| TT: tetanus toxoid alone (140 μg/mice/injection), control [reference compound] |  |  |  |  |  |  |  |  |  |  | 0 | 0 |
